Results: patent US10450260B2, “NO- and H2S-releasing compounds” (RESEARCH FOUNDATION OF THE CITY UNIVERSITY OF NEW YORK, priority 2011, dated 2019)
“And” between values parts separate entries of the source, which are not always exact repeats. Equal entries are not always repeated.

Tests used:
ovine COX-1 = target: T1, ovine COX-1 (Ovis aries, UniProt P05979); test: COX-1 enzyme activity, colorimetric inhibitor screening kit; assay type: biochemical; conditions: for preference between COX-1 and COX-2 enzyme inhibition: ovine COX-1 vs COX-2
T1 construct: purchased Cayman Chemicals (Ann Arbor, Mich.)
T1 sequence (P05979 25-600): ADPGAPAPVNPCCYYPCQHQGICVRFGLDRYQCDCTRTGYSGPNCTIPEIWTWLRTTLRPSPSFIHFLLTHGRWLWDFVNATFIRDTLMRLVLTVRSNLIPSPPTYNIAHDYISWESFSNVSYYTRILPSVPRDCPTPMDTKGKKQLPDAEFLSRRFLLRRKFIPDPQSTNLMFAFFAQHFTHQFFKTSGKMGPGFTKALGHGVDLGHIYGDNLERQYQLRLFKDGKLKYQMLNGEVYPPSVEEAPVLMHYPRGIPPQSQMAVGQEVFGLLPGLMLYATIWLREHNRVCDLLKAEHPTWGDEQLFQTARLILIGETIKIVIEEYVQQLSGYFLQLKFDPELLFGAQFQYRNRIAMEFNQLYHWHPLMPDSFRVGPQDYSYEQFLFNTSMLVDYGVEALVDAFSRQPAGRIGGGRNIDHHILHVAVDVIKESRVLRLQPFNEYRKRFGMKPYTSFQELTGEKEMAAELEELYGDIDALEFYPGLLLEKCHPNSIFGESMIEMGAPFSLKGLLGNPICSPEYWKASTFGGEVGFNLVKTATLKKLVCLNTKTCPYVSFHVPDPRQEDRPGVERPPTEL

[1] = tested on: HCT-15 human colon adenocarcinoma; test: MTT cell growth inhibition, HCT15; assay type: cell-based; conditions: for IC50: Homo sapiens, HCT-15; for Ratio NSAID/NOSH-NSAID, HCT15: fold-enhancement in potency over the parent compound
Procedure: All cells lines were grown as monolayers except for the Jurkats which were grown in suspension. […] All media were supplemented with 10% fetal calf serum (Invitrogen, Carlsbad, Calif.) penicillin (50 U/ml), and streptomycin (50 μg/ml) (Invitrogen, Carlsbad, Calif.). Cells were seeded on culture dishes at a density of 25×10^3 cells/cm^2 and incubated at 37° C. in 5% CO2 and 90% relative humidity. Single cell suspensions were obtained by trypsinization (0.05% trypsin/EDTA), and cells were counted using a hemocytometer. Viability was determined by the trypan blue dye exclusion method.
Cell growth inhibitory effect of NOSH compounds were measured using a colorimetric MTT assay kit (Roche, Indianapolis, Ind.). Cancer cells were plated in 96-well plates at a density of 50,000 cells/well. The cells were incubated for 24 h with different concentrations of NOSH compounds. After the indicated time, 10 μl of MTT dye (3-[4,5-dimethylthiazol-2-yl]-2,5-diphenyl tetrazolium bromide, 5 mg/ml in phosphate buffered saline), was added to each well, and the plates were incubated for 2 hours at 37° C. Then, the media was aspirated, and add 100 μl of the solubilization solution (10% SDS in 0.01 M HCl) was added to each well to solubilize the formant crystals. The absorbance of the plates was measured on an ELISA reader at a wavelength of 570 nm. Each sample was performed in triplicate, and the entire experiment was repeated three times.
All media were supplemented with 10% fetal calf serum (Invitrogen, Carlsbad, Calif.) penicillin (50 U/ml), and streptomycin (50 μg/ml) (Invitrogen, Carlsbad, Calif.). Cells were seeded on culture dishes at a density of 25×10^3 cells/cm^2 and incubated at 37° C. in 5% CO2 and 90% relative humidity. Single cell suspensions were obtained by trypsinization (0.05% trypsin/EDTA), and cells were counted using a hemacytometer. The final DMSO concentration was adjusted in all media to 1%. Viability was determined by the trypan blue dye exclusion method.
Cell growth inhibitory effect of all NOSH-NSAIDs was measured using a colorimetric MTT assay kit (Roche, Indianapolis, Ind.). Cancer cells were plated in 96-well plates at a density of 30,000-50,000 cells/well depending on cell type. The cells were incubated for 24 hours with different concentrations of NOSH-NSAIDs. After the indicated time, 10 μL of MTT dye (3-[4,5-dimethylthiazol-2-yl]-2,5-diphenyl tetrazolium bromide, 5 mg/mL in phosphate buffered saline), was added to each well, and the plates were incubated for 2 hours at 37° C. Then, the media was aspirated, and 100 μL of the solubilization solution (10% SDS in 0.01 M HCl) was added to each well to solubilize the formant crystals. The absorbance of the plates was measured on a spectrophotometric plate reader at a wavelength of 570 nm. Each experiment was performed in triplicate, and the entire experiment was repeated three times.

CC(C(=O)Oc1ccc(-c2cc(=S)ss2)cc1)c1ccc2cc(OC(=O)CCCO[N+](=O)[O-])ccc2c1 (centres unmarked) [NOSH-7, 6-(1-oxo-1-(4-(3-thioxo-3H-1,2-dithiol-5-yl)phenoxy)propan-2-yl)naphthalen-2-yl 4-(nitrooxy)butanoate]
inhibition at 0.08 µM (ovine COX-1; 80 nM (Table 8)): 42.5%
COX 1-% Inhibition (ovine COX-1; 80 nM (Table 8), listed as NOSH-NAPROXEN, 0.08 µM): 44.4%
inhibition at 0.16 µM (ovine COX-1; 160 nM (Table 8)): 52.3%
preference between COX-1 and COX-2 enzyme inhibition (ovine COX-1): preferentially inhibited COX-1
IC50 ([1]; 24 hours (Table 7)): 100 nM
Ratio NSAID/NOSH-NSAID, HCT15 [1]: 28,500

O=C(CCCO[N+](=O)[O-])Oc1ccccc1C(=O)Oc1ccc(-c2cc(=S)ss2)cc1 [NOSH-1, 4-(3-thioxo-3H-1,2-dithiol-5-yl)phenyl 2-((4-(nitrooxy)butanoyl)oxy)benzoate]
inhibition at 0.025 µM (ovine COX-1; 25 nM (Table 6)): 8.3 ± 1%
inhibition at 0.05 µM (ovine COX-1; 50 nM (Table 6)): 45.2 ± 2%
inhibition at 0.05 µM (ovine COX-1; 50 nM (Table 8)): 52.6%
COX 1-% Inhibition (ovine COX-1; 50 nM (Table 8), listed as NOSH-ASA, 0.05 µM): 47.6%
inhibition at 0.1 µM (ovine COX-1; 100 nM (Table 6)): 69.4 ± 2.2%
inhibition at 0.1 µM (ovine COX-1; 100 nM (Table 8)): 67.9%
preference between COX-1 and COX-2 enzyme inhibition (ovine COX-1): preferentially inhibits COX-1
IC50 ([1]; 24 hours): 50 ± 5 nM

O=C(CCCC[C@@H]1CCSS1)Oc1ccccc1C(=O)OCCCCO[N+](=O)[O-] [NOSH-4, (R)-4-(nitrooxy)butyl 2-((5-(1,2-dithiolan-3-yl)pentanoyl)oxy)benzoate]
IC50 ([1]; 24 hours): 520 ± 21 nM

CC1=C(CC(=O)Oc2ccc(OC(=O)CCCO[N+](=O)[O-])c(C(=O)Oc3ccc(-c4cc(=S)ss4)cc3)c2)c2cc(F)ccc2/C1=C/c1ccc([S+](C)[O-])cc1 (centres unmarked) [NOSH-8, (E)-4-(3-thioxo-3H-1,2-dithiol-5-yl)phenyl 5-(2-(5-fluoro-2-methyl-1-(4-(methylsulfinyl)benzylidene)-1H-inden-3-yl)acetoxy)-2-((4-(nitrooxy)butanoyl)oxy)benzoate]
inhibition at 0.089 µM (ovine COX-1; 89 nM (Table 8)): 43.4%
COX 1-% Inhibition (ovine COX-1; 89 nM (Table 8), listed as NOSH-SULINDAC, 0.089 µM): 45.0%
preference between COX-1 and COX-2 enzyme inhibition (ovine COX-1): preferentially inhibited COX-1
IC50 ([1]; 24 hours (Table 7)): 110 nM
Ratio NSAID/NOSH-NSAID, HCT15 [1]: 7,727

O=C(CCC(=O)Oc1ccccc1C(=O)Oc1ccc(-c2cc(=S)ss2)cc1)OCCCCO[N+](=O)[O-] [NOSH-2, 4-(nitrooxy)butyl (2-((4-(3-thioxo-3H-1,2-dithiol-5-yl)phenoxy)carbonyl)phenyl) succinate]
IC50 ([1]; 24 hours): 90 ± 6 nM

CC(=O)Oc1ccccc1C(=O)O [ASA, aspirin, reference compound]
COX-1, % Inhibition (ovine COX-1; 1 mM (Table 6)): 53.2±1.8%
COX 1-% Inhibition (ovine COX-1; 1 mM, 15 min at 4° C. (Table 8)): 84.9% and 85.9%
COX 1-% Inhibition (ovine COX-1; 3 mM (Table 8)): 86.5%

COc1ccc2cc([C@H](C)C(=O)O)ccc2c1 [naproxen, reference compound]
COX 1-% Inhibition (ovine COX-1; 3 mM (Table 8)): 80.1%
inhibition at 3000 µM (ovine COX-1; read-out: COX 1-% Inhibition, 3 mM (Table 8)): 84.7%
inhibition at 6000 µM (ovine COX-1; read-out: COX 1-% Inhibition, 6 mM (Table 8)): 91.9%

NC(=S)c1ccc(OC(=O)c2ccccc2OC(=O)CCCO[N+](=O)[O-])cc1 [NOSH-3, 4-carbamothioylphenyl 2-((4-(nitrooxy)butanoyl)-oxy)benzoate]
IC50 ([1]; 24 hours): 5900 ± 305 nM

CC1=C(CC(=O)O)c2cc(F)ccc2/C1=C\c1ccc([S+](C)[O-])cc1 (centres unmarked) [sulindac, reference compound]
inhibition at 800 µM (ovine COX-1; 800 μM (Table 8)): 84%
COX 1-% Inhibition (ovine COX-1; 800 μM (Table 8), 800 µM): 81.0%
inhibition at 1600 µM (ovine COX-1; 1600 μM (Table 8)): 89.1%
IC50 ([1]; 24 hours (Table 7)): 850000 nM
